From patent publication US8633019B2, “Methods for treating spinal muscular atrophy” (PTC Therapeutics, Inc., priority 2008, dated 2014)

Tested on: inclusion of exon 7 of SMN2 into mRNA transcribed from the SMN2-A minigene
Assay: Fold Activation: luciferase reporter, SMN2-A minigene construct versus SMN2-G minigene construct, in stably transfected HEK293H cells
Assay type: cell-based, human
Conditions: ratio of First Activation using the SMN2-A construct divided by Second Activation using the SMN2-G construct
Source text: In a specific embodiment, the first cell and the second cell are the same cell type. In some embodiments, the first cell and the second cell are the same cell type and are obtained from the same source or clone. In some embodiments, the first reporter gene and the second reporter gene are the same reporter gene. In other embodiments, the first reporter gene and second reporter gene are different reporter genes. A compound that increases the inclusion of exon 7 of SMN2 into mRNA transcribed from the SMN2 gene will result in a Fold Activation derived from a higher ratio of the First Activation:
[formula] [formula] [formula] In some embodiments, both the amount and activity of the first and second fusion proteins are detected. Accordingly, as used herein, the Fold Activation for a compound that modulates the inclusion of exon 7 of SMN2 into mRNA transcribed from the SMN2 gene is a ratio of the First Activation divided by the Second Activation.
The HEK293H cell line stably transfected with the SMN2-A minigene construct was utilized in the HTS. HTS was performed by plating 10,000 cells in each well of a 384-well plate. Each 384-well plate contained 64 control wells used as an internal standard: 16 wells were used as a total control (no test compound, only compound solvent), 16 wells were used as reference standards representing background readings (high inhibitor concentration) and 32 wells were prepared to provide an 8-point dose response curve of puromycin as a non-specific standard control inhibitor. The remaining 320 wells contained individual test compounds. The cells were grown overnight in the presence of test compounds or controls at 37° C. in 5% CO2. After 24 hours, the amount of luminescence was determined using a ViewLux Imaging system (Perkin Elmer).
Using the SMN2-A minigene construct, a HTS was performed testing a compound library. The amount of the fusion protein expressed from the minigene construct was determined by measuring luciferase activity as described herein. […] Enhancers of fusion protein expression were defined as those compounds that increased luciferase activity by at least three standard deviations above the mean. Based on this analysis, test compounds of Formula (I) were identified as hits and were subsequently confirmed by testing the compounds under the same conditions as in the original HTS. To ensure that the increase in luciferase activity detected in the HTS was due to increased inclusion of exon 7 of SMN2 into mRNA transcripts from the SMN2-A minigene construct, each compound was tested in two different cell lines: the cell line, which was used in the original HTS (HEK293H containing the SMN2-A minigene construct), and a HEK293H cell line that contained the SMN2-G minigene construct.
Each compound was tested at four concentrations: 15 μM, 3 μM, 0.6 μM, 0.12 μM.
The Fold Activation results are provided as a ratio of a First Activation using the SMN-2A construct divided by a Second Activation using the SMN-2G construct, wherein 1 star (*) represents active compounds with a fold increase ratio between 1.1-1.3; 2 stars (**) represent active compounds with a fold increase ratio between 1.3-2.0; 3 stars (***) represent active compounds with a fold increase ratio greater than 2.0.

Compound	Activity (Fold Activation)
Cc1ccc2nc(-c3cccc(C(=O)O)c3)oc2c1 [Cpd 2, 3-(6-methyl-benzooxazol-2-yl)-benzoic acid]	* (1 star (*) represents active compounds with a fold increase ratio between 1.1-1.3)
CC(C)(C)c1ccc2oc(-c3cccc(C(=O)O)c3)nc2c1 [Cpd 6, 3-(5-tert-butyl-benzooxazol-2-yl)-benzoic acid]	** (2 stars (**) represent active compounds with a fold increase ratio between 1.3-2.0)
O=C(O)c1cccc(-c2nc3ccc(Cn4ccnc4)cc3o2)c1 [Cpd 8, 3-(6-imidazol-1-ylmethyl-benzooxazol-2-yl)-benzoic acid]	** (2 stars (**) represent active compounds with a fold increase ratio between 1.3-2.0)
Cc1ccc2nc(-c3ccc(C(=O)O)cc3)oc2c1 [Cpd 11, 4-(6-methyl-benzooxazol-2-yl)-benzoic acid]	** (2 stars (**) represent active compounds with a fold increase ratio between 1.3-2.0)
O=C(O)c1ccc2nc(-c3ccc(-c4ccccc4)cc3)oc2c1 [Cpd 18, 2-biphenyl-4-yl-benzooxazole-6-carboxylic acid]	* (1 star (*) represents active compounds with a fold increase ratio between 1.1-1.3)
O=C(O)c1ccc2oc(-c3ccc(-c4ccccc4)cc3)nc2c1 [Cpd 19, 2-biphenyl-4-yl-benzooxazole-5-carboxylic acid]	** (2 stars (**) represent active compounds with a fold increase ratio between 1.3-2.0)
Cc1ccc2oc(-c3cccc(C(=O)O)c3)nc2c1 [Cpd 21, 3-(5-methyl-benzooxazol-2-yl)-benzoic acid]	*** (3 stars (***) represent active compounds with a fold increase ratio greater than 2.0)
CCC(C)(C)c1ccc2oc(-c3cccc(C(=O)O)c3)nc2c1 [Cpd 22, 3-[5-(1,1-dimethyl-propyl)-benzooxazol-2-yl]-benzoic acid]	** (2 stars (**) represent active compounds with a fold increase ratio between 1.3-2.0)
O=C(O)c1cccc(-c2nc3ccc(-c4ccccc4)cc3o2)c1 [Cpd 23, 3-(6-Phenyl-benzooxazol-2-yl)-benzoic acid]	* (1 star (*) represents active compounds with a fold increase ratio between 1.1-1.3)
CC(C)c1ccc(-c2nc3cc(C(=O)O)ccc3o2)cc1 [Cpd 24, 2-(4-isopropyl-phenyl)-benzooxazole-5-carboxylic acid]	*** (3 stars (***) represent active compounds with a fold increase ratio greater than 2.0)
O=C(O)c1ccc2oc(-c3ccc4c(c3)OCO4)nc2c1 [Cpd 26, 2-benzo[1,3]dioxol-5-yl-benzooxazole-5-carboxylic acid]	** (2 stars (**) represent active compounds with a fold increase ratio between 1.3-2.0)
O=C(O)c1ccc2oc(-c3ccc(N4CCCC4=O)cc3)nc2c1 [Cpd 28, 2-[4-(2-oxo-pyrrolidin-1-yl)-phenyl]-benzooxazole-5-carboxylic acid]	** (2 stars (**) represent active compounds with a fold increase ratio between 1.3-2.0)
O=C(O)c1cccc(-c2nc3cc(-c4ccc(OC(F)(F)F)cc4)ccc3o2)c1 [Cpd 29, 3-[5-(4-trifluoromethoxy-phenyl)-benzooxazol-2-yl]-benzoic acid]	** (2 stars (**) represent active compounds with a fold increase ratio between 1.3-2.0)
O=C(O)c1cccc(-c2nc3cc(-c4ccc(F)c(F)c4)ccc3o2)c1 [Cpd 30, 3-[5-(3,4-difluoro-phenyl)-benzooxazol-2-yl]-benzoic acid]	** (2 stars (**) represent active compounds with a fold increase ratio between 1.3-2.0)
O=C(O)c1cccc(-c2nc3cc(-c4cc5ccccc5o4)ccc3o2)c1 [Cpd 31, 3-(5-benzofuran-2-yl-benzooxazol-2-yl)-benzoic acid]	** (2 stars (**) represent active compounds with a fold increase ratio between 1.3-2.0)
COc1ccc2oc(-c3cccc(C(=O)O)c3)nc2c1 [Cpd 32, 3-(5-methoxy-benzooxazol-2-yl)-benzoic acid]	*** (3 stars (***) represent active compounds with a fold increase ratio greater than 2.0)
O=C(O)c1ccc2oc(-c3ccc(Br)cc3)nc2c1 [Cpd 35, 2-(4-bromo-phenyl)-benzooxazole-5-carboxylic acid]	** (2 stars (**) represent active compounds with a fold increase ratio between 1.3-2.0)
CC(C)c1ccc(-c2ccc3oc(-c4cccc(C(=O)O)c4)nc3c2)cc1 [Cpd 36, 3-[5-(4-isopropyl-phenyl)-benzooxazol-2-yl]-benzoic acid]	** (2 stars (**) represent active compounds with a fold increase ratio between 1.3-2.0)
Cc1cc(C)cc(-c2ccc3oc(-c4cccc(C(=O)O)c4)nc3c2)c1 [Cpd 37, 3-[5-(3,5-dimethyl-phenyl)-benzooxazol-2-yl]-benzoic acid]	* (1 star (*) represents active compounds with a fold increase ratio between 1.1-1.3)
Cc1ccc(-c2nc3cc(C(=O)O)ccc3o2)cc1 [Cpd 38, 2-p-tolyl-benzooxazole-5-carboxylic acid]	*** (3 stars (***) represent active compounds with a fold increase ratio greater than 2.0)
COc1ccc(-c2nc3cc(C(=O)O)ccc3o2)cc1 [Cpd 39, 2-(4-methoxy-phenyl)-benzooxazole-5-carboxylic acid]	** (2 stars (**) represent active compounds with a fold increase ratio between 1.3-2.0)
O=C(O)c1cccc(-c2nc3ccc(N4CCCCC4)cc3o2)c1 [Cpd 41, 3-(6-piperidin-1-yl-benzooxazol-2-yl)-benzoic acid]	*** (3 stars (***) represent active compounds with a fold increase ratio greater than 2.0)
O=C(O)c1cccc(-c2nc3ccc(N4CCOCC4)cc3o2)c1 [Cpd 42, 3-(6-morpholin-4-yl-benzooxazol-2-yl)-benzoic acid]	** (2 stars (**) represent active compounds with a fold increase ratio between 1.3-2.0)
O=C(O)c1cccc(-c2nc3cc(N4CCCC4)ccc3o2)c1 [Cpd 43, 3-(5-pyrrolidin-1-yl-benzooxazol-2-yl)-benzoic acid]	** (2 stars (**) represent active compounds with a fold increase ratio between 1.3-2.0)
O=C(O)c1cccc(-c2nc3ccc(-n4cccn4)cc3o2)c1 [Cpd 44, 3-(6-pyrazol-1-yl-benzooxazol-2-yl)-benzoic acid]	** (2 stars (**) represent active compounds with a fold increase ratio between 1.3-2.0)
CN1CCN(c2ccc3nc(-c4cccc(C(=O)O)c4)oc3c2)CC1 [Cpd 48, 3-[6-(4-methyl-piperazin-1-yl)-benzooxazol-2-yl]-benzoic acid]	* (1 star (*) represents active compounds with a fold increase ratio between 1.1-1.3)
O=C(O)c1ccc2oc(-c3ccc(N4CCOCC4)cc3)nc2c1 [Cpd 51, 2-(4-morpholin-4-yl-phenyl)-benzooxazole-5-carboxylic acid]	** (2 stars (**) represent active compounds with a fold increase ratio between 1.3-2.0)
O=C(O)c1cccc(-c2nc3ccc(N4CCC4)cc3o2)c1 [Cpd 52, 3-(6-azetidin-1-yl-benzooxazol-2-yl)-benzoic acid]	** (2 stars (**) represent active compounds with a fold increase ratio between 1.3-2.0)
O=C(O)c1ccc2oc(-c3ccc(NCCCCl)cc3)nc2c1 [Cpd 54, 2-[4-(3-chloro-propylamino)-phenyl]-benzooxazole-5-carboxylic acid]	** (2 stars (**) represent active compounds with a fold increase ratio between 1.3-2.0)
O=C(O)c1ccc2oc(-c3ccc(F)cc3)nc2c1 [Cpd 55, 2-(4-fluoro-phenyl)-benzooxazole-5-carboxylic acid]	* (1 star (*) represents active compounds with a fold increase ratio between 1.1-1.3)
